How the values were obtained:
[1] = system: platelets
Experimental: After treatment, the resultant was incubated with shaking at 100 rpm at 37° C. for one hour.

[2] = system: platelets in the blood; experiment: Number of platelets in the blood after intravenous injection of mitochondria; assay type: in vivo, BALB/c-nu/nu mice; settings: UC-hMSC mitochondria 50 μg/0.3 mL, single intravenous injection, mice
Experimental: The specific experimental design, which was performed so as to confirm the effect of reducing the number of platelets during intravascular injection of mitochondria into mice, is as shown in Table 2 below.

[3] = system: platelets isolated from pig whole blood; experiment: Effect of storage solvent for mitochondria and antithrombotic agent on platelet aggregation; assay type: cell-based
Experimental: Pig whole blood was centrifuged at 300×g for 5 minutes to obtain a cloudy yellow supernatant containing platelets and plasma. […] The obtained platelet precipitate was replaced with an equal amount of Dulbecco's phosphate-buffered saline (DPBS) solution, washed by centrifugation at 1,500×g for 15 minutes, and resuspended in an equal amount of a fresh DPBS solution.
In order to confirm the effect of a storage solvent for mitochondria and an antithrombotic agent on inhibition of platelet aggregation, the mitochondria of human umbilical cord-derived mesenchymal stem cells (UC-hMSC) were isolated and stored in saline and SHE solution, which is a storage solvent, for one hour, respectively, and the resultant was treated with the platelets isolated from pig whole blood and then treated with heparin. After 1 hour, the result was confirmed with a confocal laser scanning microscope.

Row | Compound | glycine concentration at which mitochondria-induced platelet aggregation is inhibited ([1]; 1 μg UC-hMSC mitochondria in 10 μL Tris-trehalose buffer with glycine 0-100 mM, 1 mL platelet solution, 37° C., one hour) | inhibition of mitochondria-induced platelet aggregation at low glycine concentration ([1]; low concentration of glycine in Tris-trehalose buffer) | change in the number of platelets in the blood [2] | inhibition of mitochondria-induced platelet aggregation with rising concentration of antithrombotic agent ([3]; UC-hMSC mitochondria stored in SHE solution) | inhibition of mitochondria-induced platelet aggregation by antithrombotic agent ([3]; UC-hMSC mitochondria stored in saline and SHE solution, pig platelets)
1 | NCC(=O)O [glycine] | ≥ 25 mM | could not inhibit platelet aggregation |  |  | 
2 | heparin |  |  | recovered to some extent, but the decrease in platelets was not completely inhibited | inhibited as the concentrations of heparin as an antithrombotic agent increased | partially inhibited

— US12403160B2, “Injection composition containing isolated mitochondria, and use thereof” (Paean Biotechnology Inc., priority 2020, dated 2025)
